Consider 23 compounds from patent US3988466A, “Prevention of gastric lesions” (priority 1973, dated 1976).

Data set [1] relates to aspirin-induced gastric lesions in pylorus-ligated rats. In words: Effect of various amino acids on aspirin-induced gastric lesions in pylorus-ligated rats (Experiment 3). Format: in vivo, male Donryu strain rats.
A short description of data set [2]: pH of amino acids in 1% carboxymethylcellulose solution. Type of data set: physicochemical. As to conditions: 150 mg/ml in 1% carboxymethylcellulose solution. The protocol:
The pH values of the amino acids are also determined. The amino acids are separately dissolved or suspended in 1% carboxymethylcellulose solution at a concentration of 150 mg/ml and the pH is measured on an Hitachi pH meter (product of Hitachi Ltd., Japan).

Data set [3] relates to yeast-induced fever in rats. The experiment in a line: Effect of L-glutamine on antipyretic activity of aspirin in rats (Experiment B). Type of data set: in vivo, male Wistar strain rats. The note with it: aspirin 200 mg/kg oral. The protocol: In this Experiment, male Wistar strain rats weighing about 90-100 g are treated with 2.5 ml/rat of a suspension of yeast (Brewers Yeast, product of Nutritional Biochem. Co., U.S.A.) in physiological saline (concentration: 250 mg/ml), by subcutaneous injection in the back, according to the method of Gleen et al [Gleen, E. M. et al: J. Pharma. Exp. Therp., 155, 157 (1967)]. The animals are then fasted. The animals showing an increased rectal temperature of 38° C or more after 17 hours are selected for use in experiment. […] As a control, one group is treated with 105 ml of 1% carboxymethylcellulose solution alone. After the treatment, the rectal temperature is measured at the time indicated.

Data set [4] has as its system acetic acid-induced writhing response in mice. The experiment in a line: Effect of L-glutamine on analgesic activity of aspirin in mice (Experiment C). Type of data set: in vivo, male dd strain mice. As to conditions: aspirin 300 mg/kg oral; writhings in 10 minutes. The protocol: In this Experiment, 3 groups of male dd strain mice weighing 19-21 g are used.
As a control, the third group is treated only with 1% carboxymethylcellulose solution. After a control period of one hour, the animals are treated with 0.2 ml of 0.7% acetic acid solution in physiological saline by intraperitoneal injection, according to the method of Koster et al. [Koster, R. et al: Fed. Proc., 18, 412 (1959)]. Starting 10 minutes after the administration of acetic acid, the number of writhing reaction occurred in 10 minutes is counted.
On the technique in general: An intraperitoneal irritant provokes the stretching counted in writhing tests.

The test system of data set [5] is gastric secretion in pylorus-ligated rats. In words: Effect of L-glutamine on gastric secretion in pylorus-ligated rats (Experiment 4). Format: in vivo, male Donryu strain rats. The procedure: In this Experiment, 7 groups of male Donryu strain rats are used. After 24 hours of fasting, the pylorus of the animal is ligated in the same manner as described in Experiment 1. Six groups are treated in the same manner as described in Experiment 1 except for the injection of the solution of pontamine sky blue 6BX in saline. A seventh group (normal) is treated twice with 5 ml/kg of 1% carboxymethylcellulose solution.
After 7 hours of pylorus ligation, the animals are killed and the stomach is removed. The gastric juice is collected and the volume is measured. The gastric juice is titrated to pH 7.4 with 0.1N NaOH using an electromatic pH meter. The concentration of pepsin in the gastric juice is also determined according to Anson's hemoglobin method [Anson, M. L., J. Gen. Physiol.

[6] abbreviates: Rattus norvegicus, po; read-out: Inhibition.
Where [7] appears, read: amino acid 750 mg/kg oral; aspirin by gastric intubation.
[8] abbreviates: Rattus norvegicus, po, read-out: Inhibition.
Where [9] appears, read: Control group: aspirin 100 mg/kg without L-glutamine, 7 hours.

Several values for one entry are separate records, joined by “and”; a condition that tells them apart may be missing. Equal entries are not always repeated. Entries after “also recorded” stand apart in the source; their conditions may differ. Where two headings read alike, the source gives them in different places.

Take `CC(C)C[C@H](N)C(=O)O` [L-leucine]: the inhibition in vivo at 750 mg/kg in data set [1] (setting [6]) is 80.5%. This compound came in with a Ulcer index in data set [1] (setting [7]) of 8.8±2.8 mm. Besides, the “Amino acid pH” value in data set [2] came to 7.15.

As for `N[C@@H](CO)C(=O)O` [L-serine], the inhibition in vivo at 750 mg/kg in data set [1] (setting [6]) amounted to 93.3%. The compound further gave a Ulcer index in data set [1] (setting [7]) of 3.0±1.0 mm. Also, the “Amino acid pH” value in data set [2] worked out at 6.11.

As to `C[C@H](N)C(=O)O` [L-alanine], the inhibition in vivo at 750 mg/kg in data set [1] (setting [6]) was 85.1%. Moreover, the Ulcer index in data set [1] (setting [7]) worked out at 6.7±1.5 mm. Further, the “Amino acid pH” value in data set [2] came out at 6.45.

`N[C@@H](CCC(=O)O)C(=O)O` [L-glutamic acid]: the inhibition in vivo at 750 mg/kg in data set [1] (setting [6]) stood at 79.8%. In data set [1] (amino acid 750 mg/kg oral), the “effect on aspirin-induced gastric lesions (in words)” value is listed as “good effect”. Also, in data set [1] (setting [7]), the Ulcer index worked out at 9.1±2.6 mm. Moreover, the “Amino acid pH” value in data set [2] came out at 3.45.

As for `C[C@@H](O)[C@H](N)C(=O)O` [L-threonine], in data set [1] (setting [6]), the inhibition in vivo at 750 mg/kg came out at 89.6%. The compound also had a Ulcer index in data set [1] (setting [7]) of 4.7±1.1 mm. Moreover, in data set [2], the “Amino acid pH” value stood at 6.26.

`N[C@@H](CS)C(=O)O` [L-cysteine]: the inhibition in vivo at 750 mg/kg in data set [1] (setting [6]) came to 10.2%. Besides, in data set [1] (amino acid 750 mg/kg oral), the “effect on aspirin-induced gastric lesions (in words)” value is reported as “no appreciable effect”. This compound also showed a Ulcer index in data set [1] (setting [7]) of 40.5±7.6 mm. In addition, the “Amino acid pH” value in data set [2] is listed as 5.81.

Turning to `NCC(=O)O` [glycine], in data set [1] (setting [8]), the inhibition in vivo at 750 mg/kg is 85.8%. In data set [1] (setting [7]), the Ulcer index is recorded as 6.4±1.7 mm. The “Amino acid pH” value in data set [2] is listed as 6.12.

Take `N[C@@H](Cc1c[nH]cn1)C(=O)O` [L-histidine]: the inhibition in vivo at 750 mg/kg in data set [1] (setting [6]) was determined as 95.3%. Further, the Ulcer index in data set [1] (setting [7]) is given as 2.1±0.8 mm. The “Amino acid pH” value in data set [2] amounted to 7.86.

For `N=C(N)NCCC[C@H](N)C(=O)O` [L-arginine], in data set [1] (setting [8]), the inhibition in vivo at 750 mg/kg amounted to 98%. For the same compound, the “effect on aspirin-induced gastric lesions (in words)” value in data set [1] (amino acid 750 mg/kg oral) is “prevent the aspirin-induced gastric lesions almost completely; also recorded: best preventive effect”. Further, the Ulcer index in data set [1] (setting [7]) is given as 0.9±0.5 mm. Besides, the “Amino acid pH” value in data set [2] was 11.00.

For `NC(Cc1c[nH]c2ccccc12)C(=O)O` (racemic) [DL-tryptophan], the inhibition in vivo at 750 mg/kg in data set [1] (setting [6]) was determined as 39.2%. The Ulcer index in data set [1] (setting [7]) came out at 27.4±4.3 mm. Besides, in data set [2], the “Amino acid pH” value is given as 8.27.

As for `CC(C)[C@H](N)C(=O)O` [L-valine], the inhibition in vivo at 750 mg/kg in data set [1] (setting [6]) came out at 91.8%. For the same compound, the Ulcer index in data set [1] (setting [7]) turned out to be 3.7±1.3 mm. The “Amino acid pH” value in data set [2] was determined as 6.80.

As to `N[C@@H](Cc1ccc(O)cc1)C(=O)O` [L-tyrosine], the inhibition in vivo at 750 mg/kg in data set [1] (setting [8]) was 12.9%. In addition, in data set [1] (amino acid 750 mg/kg oral), the “effect on aspirin-induced gastric lesions (in words)” value is on record as “no appreciable effect; also recorded: no significant effect”. Further, the Ulcer index in data set [1] (setting [7]) is 39.3±3.0 mm. Further, the “Amino acid pH” value in data set [2] is 7.52 and 7.25.

For the compound `N[C@@H](CSSC[C@H](N)C(=O)O)C(=O)O` [L-cystine], the inhibition in vivo at 750 mg/kg in data set [1] (setting [6]) was 7.8%. Besides, the “effect on aspirin-induced gastric lesions (in words)” value in data set [1] (amino acid 750 mg/kg oral) is listed as “no appreciable effect”. In data set [1] (setting [7]), the Ulcer index stood at 41.6±3.9 mm. Moreover, the “Amino acid pH” value in data set [2] is recorded as 6.62.

`N[C@@H](Cc1ccccc1)C(=O)O` [L-phenylalanine]: in data set [1] (setting [6]), the inhibition in vivo at 750 mg/kg was determined as 52.3%. The “effect on aspirin-induced gastric lesions (in words)” value in data set [1] (amino acid 750 mg/kg oral) is “significant inhibition of the lesions”. In data set [1] (setting [7]), this compound returned a Ulcer index of 21.5±3.7 mm. The “Amino acid pH” value in data set [2] was found to be 6.26.

For the compound `O=C(O)[C@@H]1CCCN1` [L-proline], the inhibition in vivo at 750 mg/kg in data set [1] (setting [6]) was found to be 77.6%. Further, the Ulcer index in data set [1] (setting [7]) came out at 10.1±2.3 mm. Besides, the “Amino acid pH” value in data set [2] amounted to 6.32.

Consider `CC[C@H](C)[C@H](N)C(=O)O` [L-isoleucine], for which, in data set [1] (setting [6]), the inhibition in vivo at 750 mg/kg was 72.6%. The “effect on aspirin-induced gastric lesions (in words)” value in data set [1] (amino acid 750 mg/kg oral) is “effective for the prevention of the gastric lesions with high significance”. The Ulcer index in data set [1] (setting [7]) stood at 11.9±2.3 mm. For the same compound, the “Amino acid pH” value in data set [2] worked out at 6.60.

For `N[C@@H](CC(=O)O)C(=O)O` [L-aspartic acid], in data set [1] (setting [6]), the inhibition in vivo at 750 mg/kg came to 17.3%. In data set [1] (amino acid 750 mg/kg oral), the “effect on aspirin-induced gastric lesions (in words)” value is given as “no appreciable effect; also recorded: no significant effect”. The same compound gave a Ulcer index in data set [1] (setting [7]) of 37.3±6.9 mm. Moreover, the “Amino acid pH” value in data set [2] came to 3.33.

In the case of `NC(=O)C[C@H](N)C(=O)O` [L-asparagine], in data set [1] (setting [6]), the inhibition in vivo at 750 mg/kg is 77.8%. This compound yielded a Ulcer index in data set [1] (setting [7]) of 10.0±2.2 mm. For the same compound, the “Amino acid pH” value in data set [2] turned out to be 5.80.

Regarding `NCCCC[C@H](N)C(=O)O` [L-lysine], the inhibition in vivo at 750 mg/kg in data set [1] (setting [8]) amounted to 99.1%. For the same compound, the “effect on aspirin-induced gastric lesions (in words)” value in data set [1] (amino acid 750 mg/kg oral) was “prevent the aspirin-induced gastric lesions almost completely; also recorded: best preventive effect”. In data set [1] (setting [7]), the Ulcer index was determined as 0.4±0.2 mm. The “Amino acid pH” value in data set [2] stood at 10.26.

As for `CC(=O)Oc1ccccc1C(=O)O` [aspirin, reference compound], the Rectal temperature in data set [3] (0 hour) is 38.4±0.1 °C; in data set [3] (1 hour), 37.9±0.1 °C; in data set [3] (2 hours), 36.7±0.2 °C; in data set [3] (4 hours), 36.6±0.1 °C; in data set [3] (6 hours), 36.9±0.2 °C. The same compound came in with a Writhing response number in data set [4] of 10±1. The same compound displayed a Gastric juice volume in data set [5] (setting [9]) of 12.5 ± 0.5 mL. Further, in data set [5] (setting [9]), the Pepsin concentration amounted to 31.8 ± 1.0 mg/mL. In data set [5] (setting [9]), the Titrable acidity was found to be 65.1±5.7 mEq/L. Moreover, the “concentration of pepsin (in words)” value in data set [5] (administration of aspirin) is given as “increased”. For the same compound, in data set [5] (aspirin itself), the “effect on acid output (in words)” value was “considerably reduces the titrable acidity and acid output”. Besides, the “effect on titrable acidity (in words)” value in data set [5] (aspirin itself) is listed as “considerably reduces the titrable acidity”. Moreover, the “effect on volume of gastric juice (in words)” value in data set [5] (aspirin itself) is “does not affect the volume of gastric juice”.

As for `NC(=O)CC[C@@H](N)C(=O)O` [D-glutamine], the inhibition in vivo at 750 mg/kg in data set [1] (setting [6]) was 82.9%. For the same compound, the Ulcer index in data set [1] (setting [7]) is listed as 7.7±1.8 mm. Further, the “Amino acid pH” value in data set [2] came out at 5.51.

Consider `CSCC[C@H](N)C(=O)O` [L-methionine], for which the inhibition in vivo at 750 mg/kg in data set [1] (setting [6]) was determined as 71.2%. Besides, the “effect on aspirin-induced gastric lesions (in words)” value in data set [1] (amino acid 750 mg/kg oral) is recorded as “effective for the prevention of the gastric lesions with high significance”. In data set [1] (setting [7]), this compound registered a Ulcer index of 13.0±3.3 mm. Besides, the “Amino acid pH” value in data set [2] is listed as 6.09.

In the case of `O=C(O)[C@@H]1C[C@@H](O)CN1` [L-hydroxyproline], the inhibition in vivo at 750 mg/kg in data set [1] (setting [8]) was determined as 71.6%. Further, the “effect on aspirin-induced gastric lesions (in words)” value in data set [1] (amino acid 750 mg/kg oral) is reported as “effective for the prevention of the gastric lesions with high significance”. In data set [1] (setting [7]), this compound registered a Ulcer index of 12.8±2.6 mm. For the same compound, the “Amino acid pH” value in data set [2] was 7.86.
